Data published in the supplement of paper PMC10307832.

Key:
Assay in all cases: relative viability (nuclei count vs DMSO), 5 days (fraction); higher = more cells survive
LK-2 = tested on: LK-2
Outline: (§1)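 The day after seeding in 1536-well plates, lung cancer cell lines were treated by pin tool with a single drug, or with a fixed anchor-drug dose together with five library-drug doses (not always all listed) in √10 steps. After 5 days, a combined fix-and-stain solution (final 0.05% Triton X-100, 1% formaldehyde, 1 ug/ml Hoechst) was added. Nuclei counted on 4× images gave relative viability as treated counts over vehicle counts, reported as the median of duplicate plates.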

COR-L23 = tested on: COR-L23
Outline: as §1

NCI-H3122 = tested on: NCI-H3122
Outline: as §1

HARA = tested on: HARA
Outline: as §1

NCI-H441 = tested on: NCI-H441
Outline: as §1

CAL-12T = tested on: CAL-12T
Outline: as §1

NCI-H2009 = tested on: NCI-H2009
Outline: as §1

NCI-H2170 = tested on: NCI-H2170
Outline: as §1

NCI-H727 = tested on: NCI-H727
Outline: as §1

HCC-366 = tested on: HCC-366
Outline: as §1

NCI-H1650 = tested on: NCI-H1650
Outline: as §1

BEN = tested on: BEN
Outline: as §1

COR-L 105 = tested on: COR-L 105
Outline: as §1

NCI-H661 = tested on: NCI-H661
Outline: as §1

NCI-H1437 = tested on: NCI-H1437
Outline: as §1

LU99A = tested on: LU99A
Outline: as §1

NCI-H1666 = tested on: NCI-H1666
Outline: as §1

201T = tested on: 201T
Outline: as §1

PC-14 = tested on: PC-14
Outline: as §1

NCI-H2023 = tested on: NCI-H2023
Outline: as §1

EKVX = tested on: EKVX
Outline: as §1

ABC-1 = tested on: ABC-1
Outline: as §1

NCI-H838 = tested on: NCI-H838
Outline: as §1

C[C@@H]1CN(CC(=O)Nc2ccc3c(c2)Cc2cccc(-c4cc(=O)cc(N5CCOCC5)o4)c2S3)C[C@H](C)O1 + C[C@@H](Oc1cc(-c2cnn(C3CCNCC3)c2)cnc1N)c1c(Cl)ccc(F)c1Cl [Crizotinib] (partner 1 µM)
relative viability (LK-2; first compound 0.1265 µM): 0.198
relative viability (LK-2; first compound 0.4 µM): 0.242
relative viability (LK-2; first compound 4 µM): 0.191
relative viability (COR-L23; first compound 0.04 µM): 0.678
relative viability (COR-L23; first compound 0.1265 µM): 0.625
relative viability (COR-L23; first compound 0.4 µM): 0.693
relative viability (COR-L23; first compound 4 µM): 0.516
relative viability (NCI-H3122; first compound 0.04 µM): 0.349
relative viability (NCI-H3122; first compound 0.1265 µM): 0.324
relative viability (NCI-H3122; first compound 0.4 µM): 0.264
relative viability (NCI-H3122; first compound 4 µM): 0.282
relative viability (HARA; first compound 0.04 µM): 0.697
relative viability (HARA; first compound 0.1265 µM): 0.96
relative viability (HARA; first compound 0.4 µM): 1.07
relative viability (HARA; first compound 4 µM): 0.988
relative viability (NCI-H441; first compound 0.04 µM): 0.944
relative viability (NCI-H441; first compound 0.1265 µM): 0.788
relative viability (NCI-H441; first compound 0.4 µM): 0.707
relative viability (NCI-H441; first compound 4 µM): 0.587
relative viability (CAL-12T; first compound 0.04 µM): 0.644
relative viability (CAL-12T; first compound 0.1265 µM): 0.526
relative viability (CAL-12T; first compound 0.4 µM): 0.693
relative viability (CAL-12T; first compound 4 µM): 0.297
relative viability (NCI-H2009; first compound 0.04 µM): 1.05
relative viability (NCI-H2009; first compound 0.1265 µM): 1.03
relative viability (NCI-H2009; first compound 0.4 µM): 1.09
relative viability (NCI-H2009; first compound 4 µM): 0.769
relative viability (NCI-H2170; first compound 0.1265 µM): 1.2
relative viability (NCI-H2170; first compound 0.4 µM): 1.21
relative viability (NCI-H2170; first compound 4 µM): 1.1
relative viability (NCI-H727; first compound 0.04 µM): 0.891
relative viability (NCI-H727; first compound 0.1265 µM): 0.746
relative viability (NCI-H727; first compound 0.4 µM): 0.927
relative viability (NCI-H727; first compound 4 µM): 0.624
relative viability (HCC-366; first compound 0.04 µM): 0.5
relative viability (HCC-366; first compound 0.1265 µM): 0.532
relative viability (HCC-366; first compound 0.4 µM): 0.414
relative viability (HCC-366; first compound 4 µM): 0.414
relative viability (NCI-H1650; first compound 0.04 µM): 0.991
relative viability (NCI-H1650; first compound 0.1265 µM): 0.959
relative viability (NCI-H1650; first compound 0.4 µM): 1.1
relative viability (NCI-H1650; first compound 4 µM): 0.55
relative viability (BEN; first compound 0.04 µM): 0.812
relative viability (BEN; first compound 0.1265 µM): 0.82
relative viability (BEN; first compound 0.4 µM): 0.964
relative viability (BEN; first compound 4 µM): 0.95
relative viability (COR-L 105; first compound 0.04 µM): 0.766
relative viability (COR-L 105; first compound 0.1265 µM): 0.862
relative viability (COR-L 105; first compound 0.4 µM): 0.881
relative viability (COR-L 105; first compound 4 µM): 0.435
relative viability (NCI-H661; first compound 0.04 µM): 1.07
relative viability (NCI-H661; first compound 0.1265 µM): 1.01
relative viability (NCI-H661; first compound 0.4 µM): 1.02
relative viability (NCI-H661; first compound 4 µM): 0.885
relative viability (NCI-H1437; first compound 0.04 µM): 0.986
relative viability (NCI-H1437; first compound 0.1265 µM): 0.899
relative viability (NCI-H1437; first compound 0.4 µM): 0.924
relative viability (NCI-H1437; first compound 4 µM): 0.778
relative viability (LU99A; first compound 0.04 µM): 0.523
relative viability (LU99A; first compound 0.1265 µM): 0.636
relative viability (LU99A; first compound 0.4 µM): 0.64
relative viability (LU99A; first compound 4 µM): 0.569
relative viability (NCI-H1666; first compound 0.04 µM): 0.928
relative viability (NCI-H1666; first compound 0.1265 µM): 1.05
relative viability (NCI-H1666; first compound 0.4 µM): 1.11
relative viability (NCI-H1666; first compound 4 µM): 0.661
relative viability (201T; first compound 0.04 µM): 1.05
relative viability (201T; first compound 0.1265 µM): 0.98
relative viability (201T; first compound 0.4 µM): 1.04
relative viability (201T; first compound 4 µM): 0.971
relative viability (PC-14; first compound 0.04 µM): 0.976
relative viability (PC-14; first compound 0.1265 µM): 0.982
relative viability (PC-14; first compound 0.4 µM): 0.859
relative viability (PC-14; first compound 4 µM): 0.706
relative viability (NCI-H2023; first compound 0.04 µM): 0.655
relative viability (NCI-H2023; first compound 0.1265 µM): 0.634
relative viability (NCI-H2023; first compound 0.4 µM): 0.664
relative viability (NCI-H2023; first compound 4 µM): 0.516
relative viability (EKVX; first compound 0.04 µM): 0.924
relative viability (EKVX; first compound 0.1265 µM): 0.947
relative viability (EKVX; first compound 0.4 µM): 1.13
relative viability (EKVX; first compound 4 µM): 0.876
relative viability (ABC-1; first compound 0.1265 µM): 1.17
relative viability (ABC-1; first compound 0.4 µM): 1.15
relative viability (ABC-1; first compound 4 µM): 0.723
relative viability (NCI-H838; first compound 0.04 µM): 0.886
relative viability (NCI-H838; first compound 0.1265 µM): 0.77
relative viability (NCI-H838; first compound 0.4 µM): 0.755
relative viability (NCI-H838; first compound 4 µM): 0.616
